As a reminder, the IC50 is the concentration at which inhibition is half-maximal.

T1 sequence (Q9Y5N1 whole entry): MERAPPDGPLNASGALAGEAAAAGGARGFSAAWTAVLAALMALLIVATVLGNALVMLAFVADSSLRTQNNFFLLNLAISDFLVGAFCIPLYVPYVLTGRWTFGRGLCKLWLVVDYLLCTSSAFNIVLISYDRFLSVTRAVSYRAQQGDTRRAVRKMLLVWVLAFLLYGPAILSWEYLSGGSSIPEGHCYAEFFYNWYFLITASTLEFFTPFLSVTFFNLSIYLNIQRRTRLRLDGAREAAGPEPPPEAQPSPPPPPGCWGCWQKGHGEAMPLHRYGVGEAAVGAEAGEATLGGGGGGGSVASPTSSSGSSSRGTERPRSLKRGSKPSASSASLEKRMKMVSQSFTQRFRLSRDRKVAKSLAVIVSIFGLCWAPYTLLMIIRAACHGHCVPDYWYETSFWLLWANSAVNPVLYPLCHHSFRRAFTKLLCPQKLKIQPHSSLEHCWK

The test has as its target T1, human H3 receptors (Homo sapiens, UniProt Q9Y5N1).
T1 construct: host or cells: CHO-K1
The test can be described thus: cAMP quantification assay for human H3 receptor testing. It is filed as cell-based. The note with it: CHO-K1 cells expressing human H3 receptors; inhibition of agonist-induced decrease of cAMP; 100 nM histamine, 10 μM forskolin; read-out: Potency range (IC50 values). The protocol: CHO—K1 cell line expressing human H3 receptors were purchased from Euroscreen (Gosselies, Belgium, Cat. no.: ES-392-C)
Human H3 receptor-expressing cell-lines were grown in Ham's F12 [Sigma, Cat. no. N6658], supplemented with 10% FBS [Sigma, Cat. no. F9665], 400 μg/ml G418 [Sigma, Cat. no. N1876] and 250 μg/ml Zeocin [Invitrogen, Cat. no. 46-0509]) according to the protocol provided by Euroscreen.
The assay measures the ability of test compounds to inhibit Histamine receptor agonist-induced decrease of intracellular free cAMP (receptor is Gi coupled).
Specifically, a cAMP quantification assay system from DiscoveRx (cAMP XS+; Cat. no. 90-0075) was used.
For the cAMP assay, confluent cells were detached from the culture vessels with 1× trypsin-EDTA solution (Sigma), and seeded into 384-well Costar plates (white, clear bottom, Cat. no. 3707) at a density of 10,000 cells per well. Cells were seeded in a volume of 50 μl in medium without antibiotics and incubated overnight in a humidified atmosphere with 5% CO2 at 37° C. The cAMP assay was performed according to the protocol provided by DiscoveRx.
The cell culture medium was removed and the cells washed once with PBS (50 μl per well). The plates were emptied by inversion and 7.5 μl/well of compound in PBS (containing 1 mM IBMX and 0.03% BSA) were added and incubated for 30 min at 37° C.
Subsequent 7.5 μl/well specific agonist solution was added and the plates for another 30 min incubated at 37° C.
hH3:100 nM histamine, 10 μM forskolin in PBS (containing 1 mM IBMX and 0.03% BSA)
After the incubation with the agonist, 5 μl/well cAMP XS antibody solution was added followed by 20 μl/well Gal/EII/Lysis (1:5:19)+ED (1:1). The plates were incubated for one hour at room temperature and afterwards 20 μl/well EA reagent was added. The luminescence was developed for approximately three hours at room temperature and the plates were read out using a ‘BMG Novostar’ plate reader.
Test compounds were assayed at 8 concentrations in triplicate. Serial 10-fold dilutions in 100% DMSO were made at a 100-times higher concentration than the final concentration and then diluted with a 2 step protocol in assay buffer to reach the required assay concentrations and 1% DMSO. […]
Turning to `Cc1ccc(N(C)C(=O)C2CN(C(=O)N3CCCN(C4CCC4)CC3)C2)cn1` [Example 145, 1-[(4-cyclobutyl-1,4-diazepan-1-yl)carbonyl]-N-methyl-N-(6-methylpyridin-3-yl)azetidine-3-carboxamide], the IC50 is less than 100 nM.

Take `O=C(N1CCCN(C2CCC2)CC1)N1CC(Oc2ccc(Cn3cccn3)cn2)C1` [Example 17, 1-cyclobutyl-4-[(3-{[5-(1H-pyrazol-1-ylmethyl)pyridin-2-yl]oxy}azetidin-1-yl)carbonyl]-1,4-diazepane]: the IC50 is less than 100 nM.

As to `O=C(N1CCN(C2CCC2)CC1)N1CC(Oc2ccc(F)cc2)C1` [Example 41, 1-cyclobutyl-4-{[3-(4-fluorophenoxy)azetidin-1-yl]carbonyl}piperazine], the half-maximal inhibitory concentration (IC50) is less than 100 nM.

`CN(C)C(=O)c1ccc(OC2CN(C(=O)N3CCCN(C4CCC4)CC3)C2)cc1` [Example 9, 4-({1-[(4-cyclobutyl-1,4-diazepan-1-yl)carbonyl]azetidin-3-yl}oxy)-N,N-dimethylbenzamide]: the IC50 is less than 100 nM.

On to `Cc1ccc(NC(=O)C2CN(C(=O)N3CCCN(C4CCC4)CC3)C2)cn1` [Example 132, 1-[(4-cyclobutyl-1,4-diazepan-1-yl)carbonyl]-N-(6-methylpyridin-3-yl)azetidine-3-carboxamide], for which the IC50 is less than 100 nM.

In the case of `O=C(N1CCCN(C2CCC2)CC1)N1CC(Oc2ccncc2F)C1` [Example 49, 1-cyclobutyl-4-({3-[(3-fluoropyridin-4-yl)oxy]azetidin-1-yl}carbonyl)-1,4-diazepane], the IC50 was less than 100 nM.

As to `O=C(N1CCCN(C2CCC2)CC1)N1CC(Oc2cncc(F)c2)C1` [Example 45, 1-cyclobutyl-4-({3-[(5-fluoropyridin-3-yl)oxy]azetidin-1-yl}carbonyl)-1,4-diazepane], the IC50 is less than 100 nM.

In the case of `CC(C)(O)c1cc(OC2CN(C(=O)N3CCCN(C4CCC4)CC3)C2)ccn1` [Example 53, 2-[4-({1-[(4-cyclobutyl-1,4-diazepan-1-yl)carbonyl]azetidin-3-yl}oxy)pyridin-2-yl]propan-2-ol], the IC50 is less than 100 nM.

For the compound `O=C(N1CCCN(C2CCC2)CC1)N1CC(Oc2ncc(F)cn2)C1` [Example 160, 1-cyclobutyl-4-({3-[(5-fluoropyrimidin-2-yl)oxy]azetidin-1-yl}carbonyl)-1,4-diazepane], the IC50 is less than 100 nM.

Consider `O=C(N1CCCN(C2CCC2)CC1)N1CC(Oc2ccc3[nH]ccc3c2)C1` [Example 154, 5-({1-[(4-cyclobutyl-1,4-diazepan-1-yl)carbonyl]azetidin-3-yl}oxy)-1H-indole], for which the IC50 is less than 100 nM.

In the case of `O=C([C@H]1C[C@@H](O)C1)N1CCCN(C2CCC2)CC1` [Example 101, cis-3-[(4-cyclobutyl-1,4-diazepan-1-yl)carbonyl]cyclobutanol], the IC50 fell in the range of 100 to 500 nM.

In the case of `Cc1cncc(OC2CN(C(=O)N3CCCN(C4CCC4)CC3)C2)n1` [Example 63, 1-cyclobutyl-4-({3-[(6-methylpyrazin-2-yl)oxy]azetidin-1-yl}carbonyl)-1,4-diazepane], the IC50 was less than 100 nM.

`Cc1cnc(OC2CN(C(=O)N3CCCN(C4CCC4)CC3)C2)c(C)n1` [Example 61, 1-cyclobutyl-4-({3-[(3,5-dimethylpyrazin-2-yl)oxy]azetidin-1-yl}carbonyl)-1,4-diazepane]: the IC50 is less than 100 nM.

Consider `Cc1ccc(OC2CN(C(=O)N3CCCN(C4CCC4)CC3)C2)nn1` [Example 59, 1-cyclobutyl-4-({3-[(6-methylpyridazin-3-yl)oxy]azetidin-1-yl}carbonyl)-1,4-diazepane], for which the IC50 is less than 100 nM.

On to `CS(=O)(=O)c1ccc(OC2CN(C(=O)N3CCCN(C4CCC4)CC3)C2)cc1` [Example 163, 1-cyclobutyl-4-({3-[4-(methylsulfonyl)phenoxy]azetidin-1-yl}carbonyl)-1,4-diazepane], for which the IC50 is less than 100 nM.

Take `O=C(N1CCCN(C2CCC2)CC1)N1CC(Oc2ccc(Br)nc2)C1` [Example 24, 1-({3-[(6-bromopyridin-3-yl)oxy]azetidin-1-yl}carbonyl)-4-cyclobutyl-1,4-diazepane]: the half-inhibitory concentration (IC50) was less than 100 nM.

On to `O=C(C1CN(C(=O)N2CCCN(C3CCC3)CC2)C1)N1CCC1` [Example 126, 1-{[3-(azetidin-1-ylcarbonyl)azetidin-1-yl]carbonyl}-4-cyclobutyl-1,4-diazepane], for which the IC50 was less than 100 nM.

`O=C([C@H]1C[C@H](O)C1)N1CCCN(C2CCC2)CC1` [Example 105, trans-3-[(4-cyclobutyl-1,4-diazepan-1-yl)carbonyl]cyclobutanol]: the IC50 is less than 100 nM.

As to `CNC(=O)c1ccc(OC2CN(C(=O)N3CCCN(C(C)C)CC3)C2)cn1` [Example 114, 5-({1-[(4-(1-methylethyl)-1,4-diazepan-1-yl)carbonyl]azetidin-3-yl}oxy)-N-methylpyridine-2-carboxamide], the half-maximal inhibitory concentration (IC50) is less than 100 nM.

For the compound `O=C(N1CCCN(C2CCC2)CC1)N1CC(Oc2ccc(C(F)(F)F)nc2)C1` [Example 94, 1-cyclobutyl-4-[(3-{[6-(trifluoromethyl)pyridin-3-yl]oxy}azetidin-1-yl)carbonyl]-1,4-diazepane], the IC50 was less than 100 nM.

Take `Cn1cc(-c2ccc(OC3CN(C(=O)N4CCCN(C5CCC5)CC4)C3)cc2)cn1` [Example 149, 1-cyclobutyl-4-({3-[4-(1-methyl-1H-pyrazol-4-yl)phenoxy]azetidin-1-yl}carbonyl)-1,4-diazepane]: the IC50 was less than 100 nM.

As for `N#Cc1ccc(O[C@H]2C[C@H](C(=O)N3CCCN(C4CCC4)CC3)C2)cc1` [Example 106, 4-({trans-3-[(4-cyclobutyl-1,4-diazepan-1-yl)carbonyl]cyclobutyl}oxy)benzonitrile], the IC50 was less than 100 nM.

Turning to `O=C(N1CCCN(C2CCC2)CC1)N1CC(Oc2ccc(Cl)cc2F)C1` [Example 90, 1-{[3-(4-chloro-2-fluorophenoxy)azetidin-1-yl]carbonyl}-4-cyclobutyl-1,4-diazepane], the IC50 is less than 100 nM.

Consider `CNC(=O)c1ccc(OC2CN(C(=O)N3CCCN(C4CCC4)CC3)C2)c(C)c1` [Example 34, 4-({1-[(4-cyclobutyl-1,4-diazepan-1-yl)carbonyl]azetidin-3-yl}oxy)-N,3-dimethylbenzamide], for which the IC50 is less than 100 nM.

Regarding `CN(C(=O)C1CCCCC1)C1CN(C(=O)N2CCCN(C3CCC3)CC2)C1` [Example 144, N-{1-[(4-cyclobutyl-1,4-diazepan-1-yl)carbonyl]azetidin-3-yl}-N-methylcyclohexanecarboxamide], the IC50 is less than 100 nM.

For the compound `O=C(N1CCCN(C2CCC2)CC1)N1CC(Oc2cccc(C(F)(F)F)c2)C1` [Example 28, 1-cyclobutyl-4-({3-[3-(trifluoromethyl)phenoxy]azetidin-1-yl}carbonyl)-1,4-diazepane], the IC50 was less than 100 nM.

`N#Cc1ccc(COC2CN(C(=O)N3CCCN(C4CCC4)CC3)C2)cc1` [Example 98, 4-[({1-[(4-cyclobutyl-1,4-diazepan-1-yl)carbonyl]azetidin-3-yl}oxy)methyl]benzonitrile]: the IC50 was less than 100 nM.

`CNC(=O)c1cnccc1OC1CN(C(=O)N2CCCN(C3CCC3)CC2)C1` [Example 85, 4-({1-[(4-cyclobutyl-1,4-diazepan-1-yl)carbonyl]azetidin-3-yl}oxy)-N-methylpyridine-3-carboxamide]: the concentration for half-maximal inhibition (IC50) is less than 100 nM.

These data come from patent publication US8691804B2 (Evotec AG, priority 2008, dated 2014).
